Key:
Rattus norvegicus [1] = species on record: Rattus norvegicus; experiment: Agonist activity tested in [Ca2+] -influx assay by using neonatal rat cultured spinal sensory neurons; type: functional
Rattus norvegicus [2] = species on record: Rattus norvegicus; experiment: Antagonist activity tested in [Ca2+] -influx assay by using neonatal rat cultured spinal sensory neurons; type: functional

SMILES	EC50 (Rattus norvegicus [1]) [µM]	IC50 (Rattus norvegicus [2]) [µM]
COc1cc(C2CCCN2/C(S)=N/CCc2ccccc2)ccc1O (stereo not given)	> 100	> 100
Oc1ccc(CCC2CCCN2/C(S)=N/CCc2ccccc2)cc1O (stereo not given)	> 100	55
Oc1ccc(C2CCCN2/C(S)=N/CCc2ccccc2)cc1O (stereo not given)	> 100	> 100
COc1cc(CCC2CCCN2/C(S)=N/CCc2ccccc2)ccc1O (stereo not given)	> 100	3
Oc1cc2c(cc1O)CN(C(=S)NCCc1ccc(Cl)cc1)CCC2 [CAPSAZEPINE]	> 100	0.6

From ChEMBL document CHEMBL1136259, “Synthesis of 2-substituted-pyrrolidinethiourea derivatives and their antagonist effect on vanilloid receptor” (Bioorg Med Chem Lett, 2003)
